In patent publication US20020169147A1, “Compositions for controlling pests” (priority 2001, published 2002):

Tested on: Dermatophagoides pteronyssinus
Test: Efficacy against mites (ticking in plastic dish, rated under a stereomicroscope)
Type: in vivo
Conditions: 0.4 ml applied to ticking; mixed population; rated after 2 hours, 1, 3 and 7 days; sum of three experimental units after end of experiment; control isopropanol/water = 9.0
Source text: A mixed population of the species Dermatophagoides pteronyssinus is used.
The upper rim of a plastic dish (Ø 7 cm, height 3 cm) is provided with glue and then covered with a piece of ticking of the same diameter. A spatula-tip full from a culture dish containing mites and feed (ground Tetramin) is placed on the ticking.
The dish is then placed on an inverted Petri dish in a plastic container (33×22 cm, height 6.5 cm), containing saturated sodium chloride solution, and the container is closed with a lid.
The next day, 0.4 ml of the composition of the invention is applied to the material.
The set-up is illuminated by daylight, the temperature is 24-26° C., and the relative atmospheric humidity within the closed plastic container is approximately 75%.
After 2 hours, 1, 3, and 7 days the state of the mites in comparison with a control treated only with isopropanol/water (1:1) is rated under a stereomicroscope (3=numerous mites, 0=no mites). Direct counting is impossible since dead animals are difficult to see.
If required (control, ineffective products), more feed is added.
Three experimental units are set up for each experiment, and after the end of the experiment the sum of the scores is recorded.

SMILES	sum of the scores of the state of the mites (0 = no mites, 9 = numerous mites)
O=C(OCc1ccccc1)c1ccccc1 [5.0% Benzyl benzoate, Benzyl benzoate]	9.0
Oc1ccccc1-c1ccccc1 [0.1% o-Phenylphenol, o-Phenylphenol]	9.0
CCCCCCCCCCCCOS(=O)(=O)[O-].[Na+] [1.0% Na lauryl sulphate, Na lauryl sulphate]	9.0
CC(O)CO (stereo not shown) [5.0% Propylene glycol, Propylene glycol]	9.0
